{"source": "patent EP3003384B1", "about": "(Lamda Laboratories S.A., priority 2014, dated 2015)", "origin": "cited, not measured here", "conditions": "at room temperature", "note": "Structures can show the parent of a compound that is named as a salt."}
{"compound": "CNCC[C@@H](Oc1ccccc1C)c1ccccc1", "note": "[atomoxetine hydrochloride]", "values": [{"measurement": "soluble in water", "value": 27.8, "unit": "mg/mL"}]}
